Publication PMC6014988, “Precision therapeutic targeting of human cancer cell motility” (Nature Communications, 2018)

Tests used:
[1] = Three-day MTT cell growth inhibition assay, PC3; format: cell-based, human; conditions: human, PC3 cells
PC3 = assay: Three-day MTT cell growth inhibition assay, PC3; format: cell-based, human; conditions: Homo sapiens, PC-3, 72 h, 3 days
[2] = Three-day MTT cell growth inhibition assay, 1542CPTX; format: cell-based, human; conditions: human, 1542CPTX cells
1542CPTX = assay: as above; format: cell-based, human; conditions: Homo sapiens, 72 h, 3 days
PC3-M cells = assay: Boyden chamber cell invasion assay, PC3-M cells; format: cell-based, human
Experimental: Boyden chamber cell invasion assays were performed as previously described by us[30], using either denatured collagen (BD Biosciences) or type IV human collagen (BD Biosciences), with all experiments repeated, each in N = 4 replicates. In some experiments, as indicated, cells were transfected with an expression plasmid, using Lipofectamine 2000™ (Invitrogen), or with siRNA, using DharmaFect Duo (Thermo Scientific) and co-transfected with β-Galactosidase (Plasmid pCMV•SPORT-βgal; Life Technology). […]
For cell invasion, PC3-M cells […]
were treated with 10 µM compound for a total of 3 days, and cell invasion assays were run at the end of the 3 day period, in the presence of compound. Values are the mean±SEM of three separate experiments, each run in replicates of N=3. […]
assays were performed with PC3-M cells. Values are the mean±SEM of a single experiment, in replicates of N=4, repeated at least once (also N=4). […]

[3] = tested on: protein phosphorylation in PC3-M and PC3 cells; assay: KinomeView phospho-motif antibody screen; format: cell-based, human; conditions: 10 µM, 3 days, ± TGFβ
Experimental: The Kinoview™ and PhosphoScan™ assays were performed by Cell Signaling Technology Inc.
Supplementary Figure 10. Proteomic analysis of the effects of KBU2046 on the kinome. (a-c) Screening for effects on the kinome. PC3-M cells were pre-treated with 10 µM KBU2046, genistein or vehicle control for 3 days, then with ± TGFβ, as indicated. Resultant cell lysate, as well as lysate from tumors from mice treated with 150 mg/kg KBU2046 or control mice (from manuscript Figure 2a), were then probed with the KinomeView® panel of antibodies by Western blot. In instances where KBU2046 was inhibiting protein phosphorylation in cells and in tumors, a repeat experiment of PC3-M cells was conducted (Experiment #2). In addition to including PC3-M cells, as in Experiment #1, Experiment #2 expanded to examine effects on PC3 cells. (a) The identification of an 83 kDa band of interest (red arrows). This constitutes the only change […]
as in tumor tissue. […] (c) All […]
other Western blots of phospho-motif antibodies that were evaluated on initial screen. NI = tumor not informative; this denotes a tumor sample that yielded an abnormal coomassie blue staining pattern. Data from this sample was therefore not considered further.
(also on this page, place not known: cat #C32G12; tPE cat #2981; sRXY, FXs NI NI cat #2351; tXR cat #23C8D12; RXRXX(s/t) NI NI)
(§1) (1 picture or pasted object on this page, not shown here)

HSP90β = target: T1, HSP90β (Homo sapiens, UniProt P08238); assay: Biophysical binding assays and DARTS, isolated HSP90β; conditions: ITC, thermal shift, biolayer interferometry, dynamic light scattering, DARTS
T1 construct: made in house; host or cells: Rosetta BL-21 E. coli
T1 sequence (P08238 whole entry): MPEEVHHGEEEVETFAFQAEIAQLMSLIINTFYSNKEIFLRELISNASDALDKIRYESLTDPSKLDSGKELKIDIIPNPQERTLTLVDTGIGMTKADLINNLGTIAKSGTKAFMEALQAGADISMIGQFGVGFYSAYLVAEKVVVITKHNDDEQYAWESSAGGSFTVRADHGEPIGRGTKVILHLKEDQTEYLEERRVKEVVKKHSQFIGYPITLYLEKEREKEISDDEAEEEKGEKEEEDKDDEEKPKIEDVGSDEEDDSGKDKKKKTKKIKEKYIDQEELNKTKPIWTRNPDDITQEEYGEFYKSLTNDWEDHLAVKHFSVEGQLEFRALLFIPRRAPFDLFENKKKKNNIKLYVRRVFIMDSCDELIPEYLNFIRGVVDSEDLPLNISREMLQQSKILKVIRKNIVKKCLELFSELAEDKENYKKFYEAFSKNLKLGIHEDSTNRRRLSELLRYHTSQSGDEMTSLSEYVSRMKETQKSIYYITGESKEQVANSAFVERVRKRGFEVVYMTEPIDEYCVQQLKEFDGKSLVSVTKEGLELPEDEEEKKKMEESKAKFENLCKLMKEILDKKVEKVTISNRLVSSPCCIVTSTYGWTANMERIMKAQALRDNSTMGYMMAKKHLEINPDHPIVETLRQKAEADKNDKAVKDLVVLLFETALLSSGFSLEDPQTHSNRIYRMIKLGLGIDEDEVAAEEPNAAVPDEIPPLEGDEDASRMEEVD
Experimental: Fluorescent thermal shift, isothermal titration calorimetry, and biolayer interferometry assays[46] were all performed as described by us using MEK4EE (37-399, S257E, T261E) cloned into pMCSG7 and KRX Competent E. coli cells (Promega Inc.) and above denoted full-length HSP90B and CDC37 vectors and Rosetta BL-21 and BL-21 DE-3 competent E. coli cells, respectively. DARTS assays were conducted as described, using equimolar amounts of CDC37 and HSP90β, thermolysin digestion, and silver stain visualization (ProteoSilver Silver Stain Kit, Sigma-Aldrich).
Supplementary Figure 14. […] Studies used purified […]
recombinant HSP90β or CDC37. Fluorescent thermal shift 5, isothermal titration calorimetry 6, […]
evidence of KBU2046 binding to either HSP90β or CDC37 (data not shown). For DARTS assay, HSP90β or CDC37 were individually pre-incubated with KBU2046, thermolysin added, and reaction products were separated by SDS PAGE and visualized by silver stain (depicted above).
NTco – no thermolysin control. However, when the DARTS assay was conducted with both HSP90β and CDC37 present, KBU2046 protected both proteins from degradation in a concentration-dependent manner (see manuscript Fig 5A).
(also on this page, place not known: HSP90 Ntco 0 0.001 0.01 0.1 1.0 10 µM KBU2046, thermolysin NTco thermolysin CDC37)
as §1

[4] = target: T2, client kinase binding to CDC37/HSP90β heterocomplexes in HEK293T cells (Homo sapiens, UniProt P08238+Q16543); assay: LUMIER assay of client kinase binding; format: cell-based
T2 construct: expressed in transfected cells; host or cells: HEK293T
T2 sequence (P08238 whole entry): as above
T2 sequence (Q16543 whole entry): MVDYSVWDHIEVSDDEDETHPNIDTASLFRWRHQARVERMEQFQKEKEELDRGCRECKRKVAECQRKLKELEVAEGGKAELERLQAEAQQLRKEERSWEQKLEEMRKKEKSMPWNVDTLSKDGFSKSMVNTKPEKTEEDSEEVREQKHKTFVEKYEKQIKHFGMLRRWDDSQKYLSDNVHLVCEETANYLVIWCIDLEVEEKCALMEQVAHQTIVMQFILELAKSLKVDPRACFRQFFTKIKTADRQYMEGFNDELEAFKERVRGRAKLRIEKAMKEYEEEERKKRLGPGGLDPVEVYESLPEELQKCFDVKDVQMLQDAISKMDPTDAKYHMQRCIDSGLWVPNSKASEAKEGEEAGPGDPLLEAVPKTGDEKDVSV
Experimental: The LUMIER assay was performed as described, using reagents generously provided by that group.
Supplementary Figures 17. KBU2046-mediated changes in the signature of client proteins bound to HSP90β/CDC37 mediate effects upon cell motility.
LUMIER assay (a). HEK293T cells stably transfected with HSP90β-luciferase were transfected with 1 of 420 different FLAG-tagged protein kinases, treated with 10 µM KBU2046 for 3 days, and LUMIER assays performed as described 12. All experiments had N = 5 vehicle treated control plus N = 5 KBU2046 treated separate wells of cells. Those yielding a t-test p value <0.05 […]
in experiment #1, or those whose values were at or below baseline, were repeated in experiment […]
hetercomplex association with KBU2046 treatment in the same direction in both experiments were selected. Of 420 kinase proteins tested, 17 (4%) met these criteria (graphically depicted in manuscript Fig. 6a). For these 17 kinases, the experiment was repeated except that HEK293T cells were treated with TGFβ for the last 24 hrs of the 3 day incubation (graphically depicted in manuscript Fig. 6b). Wound healing assay (b-d). […]

In the case of `O=C1c2ccccc2OCC1c1ccc(F)cc1` (racemic) [KBU2046, (±)-3(4-fluorophenyl)chroman-4-one], the viability at 3 days, 50 µM [1] is reported as 88.1%, the IC20 (PC3) is reported as over 50 µM and the IC50 (PC3) is reported as over 50 µM. For the same compound, the viability at 3 days, 50 µM [2] was 104%, the IC20 (1542CPTX) was over 50 µM and the IC50 (1542CPTX) was over 50 µM. For the same compound, the “anti-invasion efficacy under TGFβ stimulation” value (PC3-M cells; PC3-M cells pretreated, then ± TGFβ) was “retains efficacy”, the anti-invasion activity (PC3-M cells; PC3-M cells, 10 µM compound, 3 days) was “anti-invasive efficacy at least equal” and the “changes in protein phosphorylation” value [3] was “only a single change”. The “binding to HSP90β” value (HSP90β) was “no evidence of KBU2046 binding”, the “number of kinases with decreased binding” value ([4]; 10 µM, 3 days) was 7 and the “number of kinases with increased binding” value ([4]; 10 µM, 3 days) was 10. The “RAF1 binding to complexes” value ([4]; TGFβ-treated cells) was “decreased binding”, the “RIPK1 binding to complexes” value ([4]; TGFβ-treated cells) was “decreased” and the “SGK3 binding to complexes” value ([4]; TGFβ-treated cells) was “increased”. For the same compound, the “share of client proteins with affected binding” value ([4]; as stated in rebuttal letter) was 1%, the “CK2 binding to the HSP90β/CDC37 heterocomplex” value ([4]; in cells) was “not alter the binding of CK2” and the “share of kinases with significantly changed binding” value ([4]; of 420 kinase proteins screened) was 4%. For the same compound, the “number of kinases with significantly changed binding” value ([4]; of 420 kinase proteins screened, 10 µM, 3 days) was 17.
